Assay results taken from patent publication US11028079B2 (ConverGene LLC, priority 2015, dated 2021).
pKd: −log10 of the molar value.

target: T1, BRD4 bromodomains (Homo sapiens, UniProt O60885); assay: BROMOscan bromodomain competition binding assay (DiscoveRx); settings: Kd from 11 compound concentrations ranging from 0 to 10 μM, read-out: BROMOscan Relative Activity
T1 construct: fused on or other part: T7 phage capsid protein (phage-display fusion; the phage DNA is read out by qPCR)
Method in brief: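 Compounds in 0.1% DMSO/0.9% MEG competed with a solid-phase acetylated peptide for T7 phage-fused BRD4 bromodomains, with the retained bromodomain measured by qPCR.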

pKd | Structure (SMILES)
> 6.30 | CNC(=O)CN1CCN(c2nc(NCc3cncc(Cl)c3)c3cc(-c4ccc(=O)n(C)c4)ccc3n2)CC1 [Example 128, 2-(4-(4-(((5-chloropyridin-3-yl)methyl)amino)-6-(1-methyl-6-oxo-1,6-dihydropyridin-3-yl)quinazolin-2-yl)piperazin-1-yl)-N-methylacetamide]
> 6.30 | Cc1noc(C)c1-c1ccc2nc(C(=O)O)nc(NCc3cccc(Cl)c3)c2c1 [Example 163, 4-((3-chlorobenzyl)amino)-6-(3,5-dimethylisoxazol-4-yl)quinazoline-2-carboxylic acid]
> 6.30 | Cc1noc(C)c1-c1ccc2nc(NCCN3CCOCC3)nc(NCc3cccc(Cl)c3)c2c1 [Example 10, N4-(3-chlorobenzyl)-6-(3,5-dimethylisoxazol-4-yl)-N2-(2-morpholinoethyl)quinazoline-2,4-diamine]
5.30 to 6.30 | Cc1noc(C)c1-c1ccc2nc(-c3c(C)noc3C)nc(NCc3cccc(Cl)c3)c2c1 [Example 70, N-(3-chlorobenzyl)-2,6-bis(3,5-dimethylisoxazol-4-yl)quinazolin-4-amine]
< 5.30 | Cc1noc(C)c1-c1ccc2nc(C(=O)Nc3ccc(Cl)nc3)nc(NCc3cccc(Cl)c3)c2c1 [Example 222, 4-((3-chlorobenzyl)amino)-N-(6-chloropyridin-3-yl)-6-(3,5-dimethylisoxazol-4-yl)quinazoline-2-carboxamide]
> 6.30 | Cc1nn(C)cc1CNC(=O)c1cc(NCc2cccc(Cl)c2)c2cc(-c3c(C)noc3C)ccc2n1 [Example 230, 4-((3-chlorobenzyl)amino)-N-((1,3-dimethyl-1H-pyrazol-4-yl)methyl)-6-(3,5-dimethylisoxazol-4-yl)quinoline-2-carboxamide]
> 6.30 | Cc1noc(C)c1-c1ccc2nc(-c3cnn(CC(C)(C)O)c3)nc(N3CCNC[C@@H]3c3ccccc3)c2c1 [Example 291, (S)-1-(4-(6-(3,5-dimethylisoxazol-4-yl)-4-(2-phenylpiperazin-1-yl)quinazolin-2-yl)-1H-pyrazol-1-yl)-2-methylpropan-2-ol]
> 6.30 | Cc1noc(C)c1-c1ccc2nc(C(=O)NC3CCS(=O)(=O)CC3)nc(N3CCOC[C@@H]3c3ccccc3)c2c1 [Example 275, (S)-6-(3,5-dimethylisoxazol-4-yl)-N-(1,1-dioxidotetrahydro-2H-thiopyran-4-yl)-4-(3-phenylmorpholino)quinazoline-2-carboxamide]
> 6.30 | Cc1noc(C)c1-c1ccc2nc(N3CCN(CCN(C)C)CC3)nc(NCc3ccccc3Cl)c2c1 [Example 74, N-(2-chlorobenzyl)-2-(4-(2-(dimethylamino)ethyl)piperazin-1-yl)-6-(3,5-dimethylisoxazol-4-yl)quinazolin-4-amine]
5.30 to 6.30 | Cc1noc(C)c1-c1ccc2nc(-c3cnn(CCO)c3)nc(N3CCC(C(=O)O)CC3)c2c1 [Example 255, 1-(6-(3,5-dimethylisoxazol-4-yl)-2-(1-(2-hydroxyethyl)-1H-pyrazol-4-yl)quinazolin-4-yl)piperidine-4-carboxylic acid]
> 6.30 | CN1CCC(NC(=O)c2cc(NCc3cccc(Cl)c3)c3cc(-c4ccc(=O)n(C)c4)ccc3n2)CC1 [Example 227, 4-((3-chlorobenzyl)amino)-6-(1-methyl-6-oxo-1,6-dihydropyridin-3-yl)-N-(1-methylpiperidin-4-yl)quinoline-2-carboxamide]
> 6.30 | Cc1noc(C)c1-c1ccc2nc(-c3cnn(CCN4CCOCC4)c3)nc(NCc3cccc(Cl)c3)c2c1 [Example 28, N-(3-chlorobenzyl)-6-(3,5-dimethylisoxazol-4-yl)-2-(1-(2-morpholinoethyl)-1H-pyrazol-4-yl)quinazolin-4-amine]
> 6.30 | Cc1ncc(CNC(=O)c2nc(NCc3cccc(Cl)c3)c3cc(-c4c(C)noc4C)ccc3n2)s1 [Example 212, 4-((3-chlorobenzyl)amino)-6-(3,5-dimethylisoxazol-4-yl)-N-((2-methylthiazol-5-yl)methyl)quinazoline-2-carboxamide]
> 6.30 | Cn1cc(-c2ccc3nc(N4CCN(CC(C)(C)O)CC4)nc(NCc4cccc(Cl)c4)c3c2)ccc1=O [Example 134, 5-(4-((3-chlorobenzyl)amino)-2-(4-(2-hydroxy-2-methylpropyl)piperazin-1-yl)quinazolin-6-yl)-1-methylpyridin-2(1H)-one]
5.30 to 6.30 | Cc1noc(C)c1-c1ccc2nc(C(=O)N3CCc4c(cnn4C)C3)nc(N3CCOC[C@@H]3c3ccccc3)c2c1 [Example 276, (S)-(6-(3,5-dimethylisoxazol-4-yl)-4-(3-phenylmorpholino)quinazolin-2-yl)(1-methyl-1,4,6,7-tetrahydro-5H-pyrazolo[4,3-c]pyridin-5-yl)methanone]
5.30 to 6.30 | Cc1noc(C)c1-c1ccc2nc(Cl)nc(NCc3cccc(Cl)c3)c2c1 [Example 1, 2-chloro-N-(3-chlorobenzyl)-6-(3,5-dimethylisoxazol-4-yl)quinazolin-4-amine]

pKd | Structure (SMILES)
> 6.30 | Cc1cncc(CNC(=O)c2nc(NCc3cccc(Cl)c3)c3cc(-c4c(C)noc4C)ccc3n2)c1 [Example 193, 4-((3-chlorobenzyl)amino)-6-(3,5-dimethylisoxazol-4-yl)-N-((5-methylpyridin-3-yl)methyl)quinazoline-2-carboxamide]
> 6.30 | Cc1noc(C)c1-c1ccc2nc(N3CCN(CCN(C)C)CC3)nc(NCc3cc(Cl)ccn3)c2c1 [Example 82, N-((4-chloropyridin-2-yl)methyl)-2-(4-(2-(dimethylamino)ethyl)piperazin-1-yl)-6-(3,5-dimethylisoxazol-4-yl)quinazolin-4-amine]
5.30 to 6.30 | Cc1noc(C)c1-c1ccc2nc(N3CCN(CCC(C)C)CC3)nc(NCc3cccc(Cl)c3)c2c1 [Example 21, N-(3-chlorobenzyl)-6-(3,5-dimethylisoxazol-4-yl)-2-(4-isopentylpiperazin-1-yl)quinazolin-4-amine]
> 6.30 | Cc1noc(C)c1-c1ccc2nc(C(=O)NCc3ccncc3F)nc(NCc3cccc(Cl)c3)c2c1 [Example 215, 4-((3-chlorobenzyl)amino)-6-(3,5-dimethylisoxazol-4-yl)-N-((3-fluoropyridin-4-yl)methyl)quinazoline-2-carboxamide]
5.30 to 6.30 | Cc1noc(C)c1-c1ccc2nc(-c3csc(CO)c3)nc(N3CCOC[C@@H]3c3ccccc3)c2c1 [Example 325, (S)-(4-(6-(3,5-dimethylisoxazol-4-yl)-4-(3-phenylmorpholino)quinazolin-2-yl)thiophen-2-yl)methanol]
< 5.30 | CN(C)CCN1CCN(c2nc(NCc3cccc(Cl)c3)c3cc(-c4ccn(C)c(=O)c4)ccc3n2)CC1 [Example 116, 4-(4-((3-chlorobenzyl)amino)-2-(4-(2-(dimethylamino)ethyl)piperazin-1-yl)quinazolin-6-yl)-1-methylpyridin-2(1H)-one]
> 6.30 | COCCn1cc(-c2nc(NCc3cccc(Cl)c3)c3cc(-c4c(C)noc4C)ccc3n2)cn1 [Example 58, N-(3-chlorobenzyl)-6-(3,5-dimethylisoxazol-4-yl)-2-(1-(2-methoxyethyl)-1H-pyrazol-4-yl)quinazolin-4-amine]
> 6.30 | Cc1nn(C)cc1CNC(=O)c1nc(NCc2cncc(Cl)c2)c2cc(-c3c(C)noc3C)ccc2n1 [Example 238, 4-(((5-chloropyridin-3-yl)methyl)amino)-N-((1,3-dimethyl-1H-pyrazol-4-yl)methyl)-6-(3,5-dimethylisoxazol-4-yl)quinazoline-2-carboxamide]
> 6.30 | Cc1noc(C)c1-c1ccc2nc(C(=O)N3CCc4[nH]ncc4C3)nc(NC3(c4cccc(Cl)c4)CC3)c2c1 [Example 286, (4-((1-(3-chlorophenyl)cyclopropyl)amino)-6-(3,5-dimethylisoxazol-4-yl)quinazolin-2-yl)(1,4,6,7-tetrahydro-5H-pyrazolo[4,3-c]pyridin-5-yl)methanone]
> 6.30 | Cc1noc(C)c1-c1ccc2nc(N3CCN(C(=O)CO)CC3)nc(N3CCOC[C@@H]3c3ccccc3)c2c1 [Example 305, (S)-1-(4-(6-(3,5-dimethylisoxazol-4-yl)-4-(3-phenylmorpholino)quinazolin-2-yl)piperazin-1-yl)-2-hydroxyethan-1-one]
> 6.30 | Cc1noc(C)c1-c1ccc2nc(C(=O)NCc3ccncc3)nc(NCc3cncc(Cl)c3)c2c1 [Example 207, 4-(((5-chloropyridin-3-yl)methyl)amino)-6-(3,5-dimethylisoxazol-4-yl)-N-(pyridin-4-ylmethyl)quinazoline-2-carboxamide]
> 6.30 | Cc1noc(C)c1-c1ccc2nc(C(=O)NC3CN(C)C3)cc(NCc3cccc(Cl)c3)c2c1 [Example 234, 4-((3-chlorobenzyl)amino)-6-(3,5-dimethylisoxazol-4-yl)-N-(1-methylazetidin-3-yl)quinoline-2-carboxamide]
> 6.30 | Cc1noc(C)c1-c1ccc2nc(C(=O)NCc3cccnc3)nc(NCc3cccc(Cl)c3)c2c1 [Example 189, 4-((3-chlorobenzyl)amino)-6-(3,5-dimethylisoxazol-4-yl)-N-(pyridin-3-ylmethyl)quinazoline-2-carboxamide]
> 6.30 | Cc1noc(C)c1-c1ccc2nc(-c3cnn(CCO)c3)nc(NCc3cccc(Cl)c3)c2c1 [Example 48, 2-(4-(4-((3-chlorobenzyl)amino)-6-(3,5-dimethylisoxazol-4-yl)quinazolin-2-yl)-1H-pyrazol-1-yl)ethanol]
> 6.30 | CNC(=O)C1CCN(c2nc(N3CCOC[C@@H]3c3ccccc3)c3cc(-c4c(C)noc4C)ccc3n2)CC1 [Example 296, (S)-1-(6-(3,5-dimethylisoxazol-4-yl)-4-(3-phenylmorpholino)quinazolin-2-yl)-N-methylpiperidine-4-carboxamide]
> 6.30 | Cc1noc(C)c1-c1ccc2nc(C(=O)NCc3ccnc(Cl)c3)nc(NCc3cccc(Cl)c3)c2c1 [Example 202, 4-((3-chlorobenzyl)amino)-N-((2-chloropyridin-4-yl)methyl)-6-(3,5-dimethylisoxazol-4-yl)quinazoline-2-carboxamide]
